Test results: PubChem BioAssay (NCI)
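96-well plates; 48 h exposure; 5 concentrations. Endpoints by linear interpolation between flanking doses. Not reached: highest tested concentration assigned. TGI denotes the concentration required for complete inhibition of growth.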

What was measured:
Experiment in all cases: DTP human tumour cell line panel, 48 h
SR leukemia = test system: SR leukemia
EKVX NSCLC = test system: EKVX NSCLC
HOP-92 NSCLC = test system: HOP-92 NSCLC
SNB-75 CNS = test system: SNB-75 CNS
MOLT-4 leukemia = test system: MOLT-4 leukemia
U251 CNS = test system: U251 CNS
K-562 leukemia = test system: K-562 leukemia
HCC-2998 colon = test system: HCC-2998 colon
NCI-H226 lung = test system: NCI-H226 lung
MDA-MB-435 = test system: MDA-MB-435
SF-268 CNS = test system: SF-268 CNS
SNB-19 CNS = test system: SNB-19 CNS
UACC-257 melanoma = test system: UACC-257 melanoma
SN12C renal = test system: SN12C renal
LOX IMVI melanoma = test system: LOX IMVI melanoma
OVCAR-8 ovarian = test system: OVCAR-8 ovarian
HL-60(TB) leukemia = test system: HL-60(TB) leukemia
SF-295 CNS = test system: SF-295 CNS
MCF7 breast = test system: MCF7 breast
OVCAR-4 ovarian = test system: OVCAR-4 ovarian
NCI-H460 lung = test system: NCI-H460 lung
SF-539 CNS = test system: SF-539 CNS
HCT-15 colon = test system: HCT-15 colon
DU-145 prostate = test system: DU-145 prostate
SK-OV-3 ovarian = test system: SK-OV-3 ovarian
UACC-62 melanoma = test system: UACC-62 melanoma
COLO 205 colon = test system: COLO 205 colon
HOP-62 NSCLC = test system: HOP-62 NSCLC
SK-MEL-28 melanoma = test system: SK-MEL-28 melanoma
MDA-N = test system: MDA-N
786-0 renal = test system: 786-0 renal
BT-549 breast = test system: BT-549 breast
CCRF-CEM leukemia = test system: CCRF-CEM leukemia
SK-MEL-5 melanoma = test system: SK-MEL-5 melanoma
TK-10 renal = test system: TK-10 renal
M14 melanoma = test system: M14 melanoma
ACHN renal = test system: ACHN renal
RXF 393 renal = test system: RXF 393 renal
PC-3 prostate = test system: PC-3 prostate
NCI-H522 lung = test system: NCI-H522 lung
T-47D breast = test system: T-47D breast
IGROV1 ovarian = test system: IGROV1 ovarian
NCI/ADR-RES ovarian = test system: NCI/ADR-RES ovarian
MDA-MB-231 breast = test system: MDA-MB-231 breast
CAKI-1 renal = test system: CAKI-1 renal
HT29 colon = test system: HT29 colon
SK-MEL-2 melanoma = test system: SK-MEL-2 melanoma
HS 578T breast = test system: HS 578T breast
A549 NSCLC = test system: A549 NSCLC
SW-620 colon = test system: SW-620 colon
KM12 colon = test system: KM12 colon
UO-31 renal = test system: UO-31 renal
RPMI-8226 leukemia = test system: RPMI-8226 leukemia
OVCAR-5 ovarian = test system: OVCAR-5 ovarian
HCT-116 colon = test system: HCT-116 colon
MALME-3M melanoma = test system: MALME-3M melanoma

Measured: TGI

CCN(CC)c1ccc2cc(C(N)=S)c(=N)oc2c1
> 100 µM: all assays above
